Results from patent publication US9708251B2, “Unsaturated fatty alcohol alkoxylates from natural oil metathesis” (Stepan Company, priority 2012, dated 2017).

Legend:
Assay type in all cases: physicochemical
[1] = Fabric cleaning: compaction (surfactant blends)
Protocol: The sample is formulated into surfactant blends having high actives content. Two experimental derivatives, A12-13 and A12-21, are evaluated.
In a first experiment, a three-component surfactant blend is prepared. This blend comprises the experimental sample (30 wt. %), a linear alkylbenzene sulfonate (15 wt. %), and an alkyl ether sulfate (15 wt. %). The appearance and viscosity of the blend are compared with those of similar three-component blends in which a standard alcohol ethoxylate replaces the experimental sample.
In a second experiment, a two-component surfactant blend is prepared in which the experimental sample and a linear alkylbenzene sulfonate are combined at a 1:1 actives ratio, beginning with a high actives blend having a cloudy appearance. Water is gradually added and mixed with the surfactant blend at room temperature. […]

[2] = Emulsion stability testing of nonionic emulsifiers, aromatic solvent series; design: key to 24 h separation, appearance / 1 h separation, appearance / 1 h separation, amount: C = creamy; CO = creamy oil; O = oil; GC = gritty cream; NS = no separation; OC = oily cream; key to Spon. (spontaneity): G = good; F = fair; P = poor
[3] = Emulsion stability testing of nonionic emulsifiers, Hallcomid solvent series; design: key to 24 h separation, appearance / 1 h separation, appearance / 1 h separation, amount: C = creamy; CO = creamy oil; O = oil; GC = gritty cream; NS = no separation; OC = oily cream; key to Spon. (spontaneity): G = good; F = fair; P = poor
[4] = Agrichemical solvent analysis: active solubility; settings: room temperature
Protocol: Solvency strength of potential agrichemical solvents is evaluated by identifying the solubility level of three standard pesticides in the solvent by weight percent: 2,4-D acid, imidacloprid, and tebuconazole. […] The active material is also accurately weighed before addition. Initial amounts of active material are approximately: 2,4-D: 0.3 g; imidacloprid: 0.02 g; tebuconazole: 0.3 g. Solvent and pesticide active are combined, allowed to mix for 1 h at room temperature, and then inspected for the presence of undissolved active material. Additional active material is added in appropriately small increments until it no longer dissolves completely. This mixture is then stirred for 24 h at room temperature, and if the active has completely dissolved, additional active ingredient is added and the mixture is stirred another 24 h at room temperature. The percent solubility is recorded, and performance is compared with that of a standard agricultural solvent.

[5] = Surfactant phase behavior study (cross-polarized microscopy); settings: room temperature
Procedure, shortened: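 Saturated analogs serve as comparators. Water dilutions of the product, stepped at 2-4% near transitions, equilibrated between slide and cover glass and assigned phase by cross-polarized microscopy texture at 100-400×, 20-22° C. Boundaries lie within ±5% actives; some samples checked by viscosity at 25° C.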

[6] = Solubility evaluation: enhanced oil recovery (EOR); settings: for Comments (appearance) / Soluble?: 1 wt. % sample, 1% sodium chloride brine
Protocol: Samples are prepared in a 10% stock solution and evaluated at 1 wt. % with a brine concentration of 1% sodium chloride. Replicate experiments are performed at each temperature with each sample.

[7] = Emulsion stability testing of nonionic emulsifiers, Hallcomid solvent series; design: key: C = creamy; CO = creamy oil; O = oil; GC = gritty cream; NS = no separation; OC = oily cream; settings: Bifenthrin 240 g/L in Hallcomid M-8-10, 34 ppm water
[8] = three-component blend: sample 30 wt. %, linear alkylbenzene sulfonate 15 wt. %, alkyl ether sulfate 15 wt. %
[9] = 2,4-D ester 480 g/L in Exxsol D-110, 34 ppm water
[10] = 2,4-D ester 480 g/L in Exxsol D-110, 1000 ppm water
[11] = Bifenthrin 240 g/L in Aromatic 100, 34 ppm water
[12] = Bifenthrin 240 g/L in Aromatic 100, 1000 ppm water
[13] = Tebuconazole 360 g/L in N-methyl-2-pyrrolidone, 34 ppm water
[14] = Tebuconazole 360 g/L in N-methyl-2-pyrrolidone, 1000 ppm water
[15] = 2,4-D diester 480 g/L in Hallcomid M-8-10, 34 ppm water
[16] = 2,4-D diester 480 g/L in Hallcomid M-8-10, 1000 ppm water
[17] = Bifenthrin 240 g/L in Hallcomid M-8-10, 34 ppm water
[18] = Bifenthrin 240 g/L in Hallcomid M-8-10, 1000 ppm water
[19] = Tebuconazole 360 g/L in Hallcomid M-8-10, 34 ppm water
[20] = Tebuconazole 360 g/L in Hallcomid M-8-10, 1000 ppm water

Which “Appearance, 25° C.” value [1, 8] does the source give for CCC=CCCCCCCCCOCCOCCOCCOCCOCCOCCOCCOCCOCCO (mixture of isomers) [A12-21] here?
Its value is “cloudy, flowable gel”.

What about the Viscosity [1, 8] of the same compound?
Its Viscosity is 5600 cPs.

And the “% Actives at which blend is clear and homogeneous at 25° C.” value ([1]; two-component blend with linear alkylbenzene sulfonate, 1:1 actives ratio)?
Its value is 51 % Actives.

Which results are given for C=CCCCCCCCCOCCOCCOCCO [A10-7]?
1 h separation, amount [2, 9]: 4 mL; 1 h separation, appearance [2, 9]: CO; 24 h separation, amount [2, 9]: 1 O, 4.5 CO; Spon. (spontaneity) [2, 9]: P; 1 h separation, amount [2, 10]: 4 mL; 1 h separation, appearance [2, 10]: O; 24 h separation, amount [2, 10]: 4 mL; 24 h separation, appearance [2, 10]: O; Spon. (spontaneity) [2, 10]: P; 1 h separation, amount [2, 11]: 7 mL; 1 h separation, appearance [2, 11]: CO; 24 h separation, amount [2, 11]: 6.5 mL; 24 h separation, appearance [2, 11]: CO; Spon. (spontaneity) [2, 11]: P; 1 h separation, amount [2, 12]: 6 mL; 1 h separation, appearance [2, 12]: O; 24 h separation, amount [2, 12]: 5 mL; 24 h separation, appearance [2, 12]: O; Spon. (spontaneity) [2, 12]: P; 1 h separation, amount [2, 13]: 2 mL; 1 h separation, appearance [2, 13]: GC; 24 h separation, amount [2, 13]: 3 mL; 24 h separation, appearance [2, 13]: GC; Spon. (spontaneity) [2, 13]: P; 1 h separation, amount [2, 14]: 2.5 mL; 1 h separation, appearance [2, 14]: GC; 24 h separation, amount [2, 14]: 3 mL; 24 h separation, appearance [2, 14]: GC; Spon. (spontaneity) [2, 14]: P; 1 h separation, amount [3, 15]: 5.6 mL; 1 h separation, appearance [3, 15]: C; 24 h separation, amount [3, 15]: 10 mL; 24 h separation, appearance [3, 15]: C; Spon. (spontaneity) [3, 15]: F; 1 h separation, amount [3, 16]: 6 mL; 1 h separation, appearance [3, 16]: C; 24 h separation, amount [3, 16]: 7.5 mL; 24 h separation, appearance [3, 16]: C; Spon. (spontaneity) [3, 16]: F; 1 h separation, amount [3, 17]: NS; Spon. (spontaneity) [3, 17]: F; 1 h separation, amount [3, 18]: 10 mL; 1 h separation, appearance [3, 18]: CO; 24 h separation, amount [3, 18]: 3 O, 3 CO; Spon. (spontaneity) [3, 18]: P; 1 h separation, amount [3, 19]: 2.5 mL; 1 h separation, appearance [3, 19]: C; 24 h separation, amount [3, 19]: 5 mL; 24 h separation, appearance [3, 19]: C; Spon. (spontaneity) [3, 19]: F; 1 h separation, amount [3, 20]: 3 mL; 1 h separation, appearance [3, 20]: C; 24 h separation, amount [3, 20]: 5 mL; 24 h separation, appearance [3, 20]: C; Spon. (spontaneity) [3, 20]: F; solubility of 2,4-D Acid in the solvent [4]: 29.5 weight percent; solubility of Imidacloprid in the solvent [4]: 2.9 weight percent; solubility of Tebuconazole in the solvent [4]: 13.5 weight percent; combined isotropic phases (clear and opaque), share of the total [5]: about 50%; Isotropic Clear phase region ([5]; in deionized water): 70-100 % Actives Level; Isotropic Opaque phase region ([5]; in deionized water): 0-20 % Actives Level; Lamellar phase region ([5]; in deionized water): 20-70 % Actives Level; Comments (appearance) ([6]; 20.7 °C): white, opaque; Soluble? ([6]; 20.7 °C): no; Comments (appearance) ([6]; 51.5 °C): white, opaque; Soluble? ([6]; 51.5 °C): no; Comments (appearance) ([6]; 56.1 °C): white, hazy; Soluble? ([6]; 56.1 °C): no; Overall performance (EOR solubility) ([6]; versus control fatty alcohol ethoxylate): Overall performance of A10-7: Equal to control; 24 h separation, amount [7]: NS

With C=CCCCCCCCCOCCOCCOCCOCCOCCO [A10-10] as the compound, how does the “1 h separation, amount” value [2, 9] read?
Its value is 1.5 mL.

And the “1 h separation, appearance” value [2, 9]?
Its value is “CO”.

What about the “24 h separation, amount” value [2, 9] of the same compound?
Its value is 4.1 mL.

What about the “24 h separation, appearance” value [2, 9] of the same compound?
The value was “C”.

And the “Spon. (spontaneity)” value [2, 9]?
The value was “F”.

What about the “1 h separation, amount” value [2, 10] of the same compound?
Its value is 4 mL.

What about the “1 h separation, appearance” value [2, 10] of the same compound?
The value was “CO”.

And the “24 h separation, amount” value [2, 10]?
Its value is 1 O, 4 CO.

What about the “Spon. (spontaneity)” value [2, 10] of the same compound?
Its value is “P”.

What about the “1 h separation, amount” value [2, 11] of the same compound?
The value was “NS”.

And the “24 h separation, amount” value [2, 11]?
The value was 3.5 mL.

And the “24 h separation, appearance” value [2, 11]?
The value was “C”.

What about the “Spon. (spontaneity)” value [2, 11] of the same compound?
The value was “F”.

What about the “1 h separation, amount” value [2, 12] of the same compound?
The value was 3 O, 5 CO.

What about the “24 h separation, amount” value [2, 12] of the same compound?
Its value is 4.5 O, 1 CO.

What about the “Spon. (spontaneity)” value [2, 12] of the same compound?
The value was “F”.

And the “1 h separation, amount” value [2, 13]?
Its value is 2 mL.

And the “1 h separation, appearance” value [2, 13]?
Its value is “CO”.

And the “24 h separation, amount” value [2, 13]?
The value was 2.5 mL.

And the “24 h separation, appearance” value [2, 13]?
The value was “CO”.

And the “Spon. (spontaneity)” value [2, 13]?
The value was “P”.

And the “1 h separation, amount” value [2, 14]?
The value was 2.5 mL.

And the “1 h separation, appearance” value [2, 14]?
The value was “CO”.

What about the “24 h separation, amount” value [2, 14] of the same compound?
Its value is 3 mL.

And the “24 h separation, appearance” value [2, 14]?
Its value is “CO”.

And the “Spon. (spontaneity)” value [2, 14]?
Its value is “P”.

What about the “1 h separation, amount” value [3, 15] of the same compound?
Its value is 5 mL.

What about the “1 h separation, appearance” value [3, 15] of the same compound?
Its value is “C”.

What about the “24 h separation, amount” value [3, 15] of the same compound?
Its value is 9.9 mL.

And the “24 h separation, appearance” value [3, 15]?
Its value is “C”.

What about the “Spon. (spontaneity)” value [3, 15] of the same compound?
Its value is “F”.

And the “1 h separation, amount” value [3, 16]?
The value was 6 mL.

And the “1 h separation, appearance” value [3, 16]?
The value was “C”.

And the “24 h separation, amount” value [3, 16]?
Its value is 8 mL.

And the “24 h separation, appearance” value [3, 16]?
The value was “C”.

And the “Spon. (spontaneity)” value [3, 16]?
The value was “F”.

What about the “1 h separation, amount” value [3, 17] of the same compound?
The value was “NS”.

What about the “Spon. (spontaneity)” value [3, 17] of the same compound?
Its value is “G”.

What about the “1 h separation, amount” value [3, 18] of the same compound?
The value was 6.5 mL.

What about the “1 h separation, appearance” value [3, 18] of the same compound?
The value was “CO”.

What about the “24 h separation, amount” value [3, 18] of the same compound?
Its value is 4 O, 2 CO.

What about the “Spon. (spontaneity)” value [3, 18] of the same compound?
The value was “F”.

And the “1 h separation, amount” value [3, 19]?
The value was 2 mL.

What about the “1 h separation, appearance” value [3, 19] of the same compound?
The value was “C”.

And the “24 h separation, amount” value [3, 19]?
Its value is 5 mL.

What about the “24 h separation, appearance” value [3, 19] of the same compound?
The value was “C”.

What about the “Spon. (spontaneity)” value [3, 19] of the same compound?
The value was “F”.

What about the “1 h separation, amount” value [3, 20] of the same compound?
Its value is 3.5 mL.

And the “1 h separation, appearance” value [3, 20]?
The value was “C”.

What about the “24 h separation, amount” value [3, 20] of the same compound?
Its value is 2 CO, 5 C.

And the “Spon. (spontaneity)” value [3, 20]?
Its value is “F”.

And the “solubility of 2,4-D Acid in the solvent” value [4]?
Its value is 29.8 weight percent.

What about the “solubility of Imidacloprid in the solvent” value [4] of the same compound?
The value was 2.8 weight percent.

What about the “solubility of Tebuconazole in the solvent” value [4] of the same compound?
Its value is 13.0 weight percent.

What about the “Isotropic Clear phase region” value ([5]; in deionized water) of the same compound?
Its value is 0-100 % Actives Level.

And the “24 h separation, amount” value [7]?
Its value is “NS”.
